Experimental data taken from patent publication US6737383B1, “Herbicidal oxadiazolidines” (priority 1999, dated 2004).

What was measured:
bedstraw = assay: Test B pre/postemergence bedstraw; format: in vivo, Galium aparine
Outline: (§1)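 Herbicidal effect was estimated by eye on a ten-point control scale after plants spent twelve to sixteen days in a greenhouse following soil or foliar treatment. Foliar sprays targeted plants at one to four leaves; all doses were formulated in a non-phytotoxic solvent with surfactant.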

blackgrass = assay: Test B pre/postemergence blackgrass; format: in vivo, Alopecurus myosuroides
Outline: as §1

surinam grass = assay: Test B pre/postemergence surinam grass; format: in vivo, Brachiaria decumbens
Outline: as §1

cocklebur = assay: Test B pre/postemergence cocklebur; format: in vivo, Xanthium strumarium
Outline: as §1

corn = assay: Test B pre/postemergence corn; format: in vivo, Zea mays
Outline: as §1

crabgrass = assay: Test B pre/postemergence crabgrass; format: in vivo, Digitaria sanguinalis
Outline: as §1

giant foxtail = assay: Test B pre/postemergence giant foxtail; format: in vivo, Setaria faberii
Outline: as §1

morningglory = assay: Test B pre/postemergence morningglory; format: in vivo, Ipomoea hederacea
Outline: as §1

pigweed = assay: Test B pre/postemergence pigweed; format: in vivo, Amaranthus retroflexus; details: for Plant response rating, Redroot pigweed: Postemergence
Outline: as §1

rape = assay: Test B pre/postemergence rape; format: in vivo, Brassica napus
Outline: as §1

soybean = assay: Test B pre/postemergence soybean; format: in vivo, Glycine max; details: for Plant response rating, Soybean: Postemergence
Outline: as §1

sugar beet = assay: Test B pre/postemergence sugar beet; format: in vivo, Beta vulgaris; details: for Plant response rating, Sugarbeets: Postemergence
Outline: as §1

velvetleaf = assay: Test B pre/postemergence velvetleaf; format: in vivo, Abutilon theophrasti; details: for Plant response rating, Velvetleaf: Postemergence
Outline: as §1

wheat = assay: Test B pre/postemergence wheat; format: in vivo, Triticum aestivum; details: for Plant response rating, Wheat: Postemergence
Outline: as §1

wild oat = assay: Test B pre/postemergence wild oat; format: in vivo, Avena fatua; details: for Plant response rating, Wild oats: Postemergence
Outline: as §1

purple nutsedge = assay: Test B pre/postemergence purple nutsedge; format: in vivo, Cyperus rotundus
Outline: as §1

[1] = Postemergence, Rate 62 g/ha, scale of 0 to 10, 0 is no effect, 10 is complete control
[2] = Postemergence, Rate 125 g/ha, scale 0 to 10, 0 is no effect, 10 is complete control
[3] = Preemergence, Rate 62 g/ha, scale 0 to 10 (0 no effect, 10 complete control)
[4] = Preemergence, Rate 125 g/ha, scale of 0 to 10 where 0 is no effect and 10 is complete control
[5] = Preemergence, Rate 500 g/ha, scale of 0 to 10 where 0 is no effect and 10 is complete control
[6] = Rate 250 g/ha, Postemergence, scale of 0 to 10 where 0 is no effect and 10 is complete control
[7] = Postemergence, Rate 500 g/ha, scale of 0 to 10 where 0 is no effect and 10 is complete control
[8] = Rate 500 g/ha, scale of 0 to 10 where 0 is no effect and 10 is complete control
[9] = Rate 250 g/ha, scale of 0 to 10 where 0 is no effect and 10 is complete control

## CC(C)N(C(=O)n1oc(=O)n(COCc2ccccc2)c1=O)c1ccccc1 [Compound 579]
bedstraw; [1]
  Bedstraw plant response rating: 0
bedstraw; [2]
  Bedstraw plant response rating: 0
bedstraw; [3]
  Bedstraw plant response rating: 0
bedstraw; [4]
  Bedstraw plant response rating: 0
bedstraw; Preemergence, Rate 250 g/ha
  Bedstraw plant response rating (0 to 10 scale): 0
bedstraw; [5]
  Bedstraw plant response rating: 0
bedstraw; [6]
  Plant response rating, Bedstraw: 10
blackgrass; [1]
  Blackgrass plant response rating: 0
blackgrass; [2]
  Blackgrass plant response rating: 0
blackgrass; [7]
  Plant response rating, Blackgrass: 5
blackgrass; [3]
  Blackgrass plant response rating: 0
blackgrass; [4]
  Blackgrass plant response rating: 0
blackgrass; Preemergence, Rate 250 g/ha
  Blackgrass plant response rating (0 to 10 scale): 0
blackgrass; [5]
  Blackgrass plant response rating: 0
blackgrass; [6]
  Plant response rating, Blackgrass: 2
Surinam grass; [1]
  B. signalgrass plant response rating: 0
Surinam grass; [2]
  B. signalgrass plant response rating: 0
Surinam grass; [7]
  Plant response rating, B. signalgrass: 2
Surinam grass; [3]
  B. signalgrass plant response rating: 0
Surinam grass; [4]
  B. signalgrass plant response rating: 0
Surinam grass; Preemergence, Rate 250 g/ha
  B. signalgrass plant response rating (0 to 10 scale, 0 is no effect, 10 is complete control): 2
Surinam grass; [5]
  B. signalgrass plant response rating: 3
Surinam grass; [6]
  Plant response rating, B. signalgrass: 2
cocklebur; [1]
  Cocklebur plant response rating: 0
cocklebur; [2]
  Cocklebur plant response rating: 0
cocklebur; [7]
  Plant response rating, Cocklebur: 0
cocklebur; [3]
  Cocklebur plant response rating: 0
cocklebur; [4]
  Cocklebur plant response rating: 0
cocklebur; Preemergence, Rate 250 g/ha
  Cocklebur plant response rating (0 to 10 scale): 0
cocklebur; [5]
  Cocklebur plant response rating: 0
cocklebur; [6]
  Plant response rating, Cocklebur: 0
corn; [1]
  Corn plant response rating: 0
corn; [2]
  Corn plant response rating: 0
corn; [7]
  Plant response rating, Corn: 0
corn; [3]
  Corn plant response rating: 0
corn; [4]
  Corn plant response rating: 0
corn; Preemergence, Rate 250 g/ha
  Corn plant response rating (0 to 10 scale): 0
corn; [5]
  Corn plant response rating: 3
corn; [6]
  Plant response rating, Corn: 0
crabgrass; [1]
  Crabgrass plant response rating: 0
crabgrass; [2]
  Crabgrass plant response rating: 6
crabgrass; [7]
  Plant response rating, Crabgrass: 8
crabgrass; [3]
  Crabgrass plant response rating: 7
crabgrass; [4]
  Crabgrass plant response rating: 7
crabgrass; Preemergence, Rate 250 g/ha
  Crabgrass plant response rating (0 to 10 scale): 10
crabgrass; [5]
  Crabgrass plant response rating: 10
crabgrass; [6]
  Plant response rating, Crabgrass: 6
Giant foxtail; [1]
  Giant foxtail plant response rating: 0
Giant foxtail; [2]
  Giant foxtail plant response rating: 2
Giant foxtail; [7]
  Plant response rating, Giant foxtail: 7
Giant foxtail; [3]
  Giant foxtail plant response rating: 8
Giant foxtail; [4]
  Giant foxtail plant response rating: 9
Giant foxtail; Preemergence, Rate 250 g/ha
  Giant foxtail plant response rating (0 to 10 scale): 10
Giant foxtail; [5]
  Giant foxtail plant response rating: 10
Giant foxtail; [6]
  Plant response rating, Giant foxtail: 5
morningglory; [1]
  Morningglory plant response rating: 10
morningglory; [2]
  Morningglory plant response rating: 10
morningglory; [7]
  Plant response rating, Morningglory: 10
morningglory; [3]
  Morningglory plant response rating: 0
morningglory; [4]
  Morningglory plant response rating: 0
morningglory; Preemergence, Rate 250 g/ha
  Morningglory plant response rating (0 to 10 scale): 0
morningglory; [5]
  Morningglory plant response rating: 0
morningglory; [6]
  Plant response rating, Morningglory: 10
pigweed; [8]
  Plant response rating, Redroot pigweed: 3
pigweed; [3]
  Redroot pigweed plant response rating: 0
pigweed; [4]
  Redroot pigweed plant response rating: 0
pigweed; Preemergence, Rate 250 g/ha
  Redroot pigweed plant response rating (0 to 10 scale): 2
pigweed; [5]
  Redroot pigweed plant response rating: 3
pigweed; [9]
  Plant response rating, Redroot pigweed: 0
rape; [1]
  Rape plant response rating: 0
rape; [2]
  Rape plant response rating: 0
rape; [7]
  Plant response rating, Rape: 3
rape; [3]
  Rape plant response rating: 0
rape; [4]
  Rape plant response rating: 0
rape; Preemergence, Rate 250 g/ha
  Rape plant response rating (0 to 10 scale): 0
rape; [5]
  Rape plant response rating: 0
rape; [6]
  Plant response rating, Rape: 0
soybean; [8]
  Plant response rating, Soybean: 4
soybean; [3]
  Soybean plant response rating: 0
soybean; [4]
  Soybean plant response rating: 0
soybean; Preemergence, Rate 250 g/ha
  Soybean plant response rating (0 to 10 scale): 0
soybean; [5]
  Soybean plant response rating: 0
soybean; [9]
  Plant response rating, Soybean: 3
Sugar beet; [8]
  Plant response rating, Sugarbeets: 0
Sugar beet; [3]
  Sugarbeets plant response rating: 0
Sugar beet; [4]
  Sugarbeets plant response rating: 0
Sugar beet; Preemergence, Rate 250 g/ha
  Sugarbeets plant response rating (0 to 10 scale): 0
Sugar beet; [5]
  Sugarbeets plant response rating: 0
Sugar beet; [9]
  Plant response rating, Sugarbeets: 0
velvetleaf; [8]
  Plant response rating, Velvetleaf: 0
velvetleaf; [3]
  Velvetleaf plant response rating: 0
velvetleaf; [4]
  Velvetleaf plant response rating: 0
velvetleaf; Preemergence, Rate 250 g/ha
  Velvetleaf plant response rating (0 to 10 scale): 0
velvetleaf; [5]
  Velvetleaf plant response rating: 0
velvetleaf; [9]
  Plant response rating, Velvetleaf: 0
wheat; [8]
  Plant response rating, Wheat: 0
wheat; [3]
  Wheat plant response rating: 0
wheat; [4]
  Wheat plant response rating: 0
wheat; Preemergence, Rate 250 g/ha
  Wheat plant response rating (0 to 10 scale): 0
wheat; [5]
  Wheat plant response rating: 0
wheat; [9]
  Plant response rating, Wheat: 0
Wild oat; [8]
  Plant response rating, Wild oats: 0
Wild oat; [3]
  Wild oats plant response rating: 0
Wild oat; [4]
  Wild oats plant response rating: 0
Wild oat; Preemergence, Rate 250 g/ha
  Wild oats plant response rating (0 to 10 scale): 0
Wild oat; [5]
  Wild oats plant response rating: 0
Wild oat; [9]
  Plant response rating, Wild oats: 0
Purple nutsedge; [2]
  Nutsedge plant response rating: 0
Purple nutsedge; [3]
  Nutsedge plant response rating: 0
Purple nutsedge; [4]
  Nutsedge plant response rating: 0
Purple nutsedge; Preemergence, Rate 250 g/ha
  Nutsedge plant response rating (0 to 10 scale): 0
Purple nutsedge; [5]
  Nutsedge plant response rating: 3
Purple nutsedge; [6]
  Plant response rating, Nutsedge: 0
